For seven compounds, Activity results are on record in ChEMBL document CHEMBL1144083, “Phenylvaleric acid and flavonoid glycosides from Polygonum salicifolium” (J Nat Prod, 1999).

The source made the active and inactive calls. The rule behind the calls is not given here.

Type in all cases: functional
Experiment [1] has as its system Radical scavenging activity. In words: Antioxidant activity assessed as DPPH free radical scavenging activity at 4 ug by TLC autographic assay. On the technique in general: The DPPH test is a chemical assay of radical scavenging.
Experiment [2] has as its system Radical scavenging activity. Description: Antioxidant activity assessed as DPPH free radical scavenging activity at 2 ug by TLC autographic assay.
The subject of experiment [3] is Radical scavenging activity. In words: Antioxidant activity assessed as DPPH free radical scavenging activity at 6 ug by TLC autographic assay.
Experiment [4] relates to Radical scavenging activity. Description: Antioxidant activity assessed as DPPH free radical scavenging activity at 8 ug by TLC autographic assay.
For experiment [5], the system named is Radical scavenging activity. Description: Antioxidant activity assessed as DPPH free radical scavenging activity by TLC autographic assay.

`O=C(O)[C@H]1O[C@@H](Oc2c(-c3ccc(O)c(O)c3)oc3cc(O)cc(O)c3c2=O)[C@H](O)[C@@H](O)[C@@H]1O`: the result in experiment [1], in experiment [2], in experiment [3] and in experiment [4] was Active.
On to `O=C(O)C[C@@H](CCc1ccccc1)O[C@H]1O[C@@H](CO)[C@H](O)[C@@H](O)[C@@H]1O`, for which, in experiment [5], the result was inactive.
With `O=c1c(O[C@@H]2O[C@H](CO)[C@H](O)[C@H](O)[C@H]2O)c(-c2ccc(O)c(O)c2)oc2cc(O)cc(O)c12`, the result in experiment [1], in experiment [2], in experiment [3] and in experiment [4] was Active.
On to `CCCCOC(=O)C[C@@H](CCc1ccccc1)O[C@H]1O[C@@H](CO)[C@H](O)[C@@H](O)[C@@H]1O`, for which the result in experiment [5] was inactive.
For `O=c1c(O[C@@H]2O[C@H](CO)[C@@H](O)[C@H](O)[C@H]2O)c(-c2ccc(O)c(O)c2)oc2cc(O)cc(O)c12`, the result in experiment [1], in experiment [2], in experiment [3] and in experiment [4] was Active.
`COc1cc(O[C@@H]2O[C@H](CO[C@@H]3O[C@H](CO)[C@@H](O)[C@H](O)[C@H]3O)[C@@H](O)[C@H](O)[C@H]2O)c(OC)c(O)c1C(=O)CCc1ccccc1`: in experiment [5], the result was inactive.
`O=C(O[C@H]1[C@H](Oc2c(-c3ccc(O)c(O)c3)oc3cc(O)cc(O)c3c2=O)O[C@H](CO)[C@@H](O)[C@@H]1O)c1cc(O)c(O)c(O)c1`: the result in experiment [1], in experiment [2], in experiment [3] and in experiment [4] was Active.
